Patent US11452727B2, “Combination therapy for treating cancer” (Epizyme, Inc., priority 2017, dated 2022)

Tests used:
Assay in all cases: In vitro combination study with tazemetostat, cell proliferation (Cell Titer Glo)
NCI-H2122 = settings: 7 days tazemetostat pre-treatment, 6 days co-treatment with second agent
Procedure: (§1) Initial proliferation studies were performed to determine the IC50 of tazemetostat in each cell line. For the screen, tazemetostat was used at concentrations bracketed around the IC50 value. If 50% inhibitory concentration was not reached then tazemetostat was tested starting at 10 μM.
(§2) In order to study the effect of dual combination of tazemetostat and a second agent on cell proliferation, cells in log-linear phase growth rate were pre-treated with various concentrations of tazemetostat or DMSO for 7 days in flasks, plated in 384-well plates in the absence of compounds and co-treated on day 8 with tazemetostat or DMSO and the second agent serially diluted for additional 6 days (as depicted in FIG. 1). On day 15, plates were developed for endpoint analysis using Cell Titer Glo to measure ATP content, which was used as an indicator of cell viability. DMSO concentration was kept constant throughout the assay at 0.15% v/v.
(§3) All cell lines were obtained from American Type Culture Collection (ATCC; Rockville, Md.). […] A427, Calu-3, Calu-6 cell lines were cultured in EMEM+10% Fetal bovine serum (FBS)+1% v/v Penicillin/Streptomycin (P/S).

A549 = settings: 7 days tazemetostat pre-treatment, 6 days co-treatment with second agent
Procedure: as §1, §2

NCI-H2110 = settings: 7 days tazemetostat pre-treatment, 6 days co-treatment with second agent
NCI-H522 = settings: 7 days tazemetostat pre-treatment, 6 days co-treatment with second agent
Calu-3 = settings: 7 days tazemetostat pre-treatment, 6 days co-treatment with second agent
A427 = settings: A427; 7 days tazemetostat pre-treatment, 6 days co-treatment with second agent
Procedure: as §1, §2, §3

Calu-6 = settings: 7 days tazemetostat pre-treatment, 6 days co-treatment with second agent
NCI-H1703 = settings: 7 days tazemetostat pre-treatment, 6 days co-treatment with second agent
Procedure: as §1, §2

NCI-H1993 = settings: 7 days tazemetostat pre-treatment, 6 days co-treatment with second agent
Procedure: as §1, §2

NCI-H838 = settings: 7 days tazemetostat pre-treatment, 6 days co-treatment with second agent
NCI-H661 = settings: 7 days tazemetostat pre-treatment, 6 days co-treatment with second agent
Procedure: as §1, §2, §3

NCI-H460 = settings: 7 days tazemetostat pre-treatment, 6 days co-treatment with second agent
Procedure: as §1, §2, §3

NCI-H1573 = settings: 7 days tazemetostat pre-treatment, 6 days co-treatment with second agent
Procedure: as §1, §2
NCI-H1573 was cultured in DMEM: F12 Medium containing the following components: 0.02 mg/ml insulin, 0.01 mg/ml transferrin, 25 nM sodium selenite, 50 nM Hydrocortisone, 1 ng/ml Epidermal Growth Factor, 0.01 mM ethanolamine, 0.01 mM phosphorylethanolamine, 100 pM triiodothyronine, 0.5% (w/v) bovine serum albumin, 0.5 mM sodium pyruvate, 4.5 mM L-glutamine and 1% v/v Pen/Strep.

NCI-H1299 = settings: 7 days tazemetostat pre-treatment, 6 days co-treatment with second agent
Procedure: as §1, §2

NCI-H23 = settings: 7 days tazemetostat pre-treatment, 6 days co-treatment with second agent
Procedure: as §1, §2, §3

NCI-H1793 = settings: 7 days tazemetostat pre-treatment, 6 days co-treatment with second agent
NCI-H2030 = settings: 7 days tazemetostat pre-treatment, 6 days co-treatment with second agent
Procedure: as §1, §2

HCC827 = settings: 7 days tazemetostat pre-treatment, 6 days co-treatment with second agent

SMILES	combinatorial effect with tazemetostat (Loewe volume class) (NCI-H2122)	combinatorial effect with tazemetostat (Loewe volume class) (A549)	combinatorial effect with tazemetostat (Loewe volume class) (NCI-H2110)	combinatorial effect with tazemetostat (Loewe volume class) (NCI-H522)	combinatorial effect with tazemetostat (Loewe volume class) (Calu-3)	combinatorial effect with tazemetostat (Loewe volume class) (A427)	combinatorial effect with tazemetostat (Loewe volume class) (Calu-6)	combinatorial effect with tazemetostat (Loewe volume class) (NCI-H1703)	combinatorial effect with tazemetostat (Loewe volume class) (NCI-H1993)	combinatorial effect with tazemetostat (Loewe volume class) (NCI-H838)	combinatorial effect with tazemetostat (Loewe volume class) (NCI-H661)	combinatorial effect with tazemetostat (Loewe volume class) (NCI-H460)	combinatorial effect with tazemetostat (Loewe volume class) (NCI-H1573)	combinatorial effect with tazemetostat (Loewe volume class) (NCI-H1299)	combinatorial effect with tazemetostat (Loewe volume class) (NCI-H23)	combinatorial effect with tazemetostat (Loewe volume class) (NCI-H1793)	combinatorial effect with tazemetostat (Loewe volume class) (NCI-H2030)	combinatorial effect with tazemetostat (Loewe volume class) (HCC827)
CN(C)C/C=C/C(=O)Nc1cc2c(Nc3ccc(F)c(Cl)c3)ncnc2cc1O[C@H]1CCOC1 [Afatinib, afatinib]	Add. (A value between −1 and 1 denoted “additivity”)	Anta. (volumes <−1 denoted “antagonism”)	Syn. (Loewe volumes greater than 1 denoted “synergy”)	Syn. (Loewe volumes greater than 1 denoted “synergy”)	Syn. (Loewe volumes greater than 1 denoted “synergy”)	Syn. (Loewe volumes greater than 1 denoted “synergy”)	Add. (A value between −1 and 1 denoted “additivity”)	Add. (A value between −1 and 1 denoted “additivity”)	Add. (A value between −1 and 1 denoted “additivity”)	Syn. (Loewe volumes greater than 1 denoted “synergy”)	Add. (A value between −1 and 1 denoted “additivity”)	Add. (A value between −1 and 1 denoted “additivity”)	Add. (A value between −1 and 1 denoted “additivity”)	Add. (A value between −1 and 1 denoted “additivity”)	Add. (A value between −1 and 1 denoted “additivity”)	Syn. (Loewe volumes greater than 1 denoted “synergy”)	Add. (A value between −1 and 1 denoted “additivity”)	
O=C(CCCCCCC(=O)Nc1ccccc1)NO [Vorinostat, vorinostat]	Add. (A value between −1 and 1 denoted “additivity”)	Add. (A value between −1 and 1 denoted “additivity”)	Add. (A value between −1 and 1 denoted “additivity”)	Syn. (Loewe volumes greater than 1 denoted “synergy”)	Add. (A value between −1 and 1 denoted “additivity”)	Syn. (Loewe volumes greater than 1 denoted “synergy”)	Syn. (Loewe volumes greater than 1 denoted “synergy”)	Syn. (Loewe volumes greater than 1 denoted “synergy”)	Add. (A value between −1 and 1 denoted “additivity”)	Add. (A value between −1 and 1 denoted “additivity”)	Add. (A value between −1 and 1 denoted “additivity”)	Syn. (Loewe volumes greater than 1 denoted “synergy”)	Syn. (Loewe volumes greater than 1 denoted “synergy”)	Add. (A value between −1 and 1 denoted “additivity”)	Syn. (Loewe volumes greater than 1 denoted “synergy”)	Syn. (Loewe volumes greater than 1 denoted “synergy”)	Syn. (Loewe volumes greater than 1 denoted “synergy”)	Add. (A value between −1 and 1 denoted “additivity”)
CC(=O)Nc1cccc(-n2c(=O)n(C3CC3)c(=O)c3c(Nc4ccc(I)cc4F)n(C)c(=O)c(C)c32)c1 [Trametinib, trametinib]	Anta. (volumes <−1 denoted “antagonism”)	Anta. (volumes <−1 denoted “antagonism”)	Syn. (Loewe volumes greater than 1 denoted “synergy”)	Syn. (Loewe volumes greater than 1 denoted “synergy”)	Syn. (Loewe volumes greater than 1 denoted “synergy”)	Syn. (Loewe volumes greater than 1 denoted “synergy”)	Add. (A value between −1 and 1 denoted “additivity”)	Syn. (Loewe volumes greater than 1 denoted “synergy”)	Syn. (Loewe volumes greater than 1 denoted “synergy”)	Syn. (Loewe volumes greater than 1 denoted “synergy”)	Add. (A value between −1 and 1 denoted “additivity”)	Anta. (volumes <−1 denoted “antagonism”)	Syn. (Loewe volumes greater than 1 denoted “synergy”)	Syn. (Loewe volumes greater than 1 denoted “synergy”)	Add. (A value between −1 and 1 denoted “additivity”)	Syn. (Loewe volumes greater than 1 denoted “synergy”)	Syn. (Loewe volumes greater than 1 denoted “synergy”)	Syn. (Loewe volumes greater than 1 denoted “synergy”)
COc1cc(N2CCC(N3CCN(C)CC3)CC2)ccc1Nc1ncc(Cl)c(Nc2ccccc2P(C)(C)=O)n1 [Brigatinib, brigatinib]	Add. (A value between −1 and 1 denoted “additivity”)	Syn. (Loewe volumes greater than 1 denoted “synergy”)	Syn. (Loewe volumes greater than 1 denoted “synergy”)	Syn. (Loewe volumes greater than 1 denoted “synergy”)	Syn. (Loewe volumes greater than 1 denoted “synergy”)	Syn. (Loewe volumes greater than 1 denoted “synergy”)	Add. (A value between −1 and 1 denoted “additivity”)	Syn. (Loewe volumes greater than 1 denoted “synergy”)	Syn. (Loewe volumes greater than 1 denoted “synergy”)	Syn. (Loewe volumes greater than 1 denoted “synergy”)	Add. (A value between −1 and 1 denoted “additivity”)	Syn. (Loewe volumes greater than 1 denoted “synergy”)	Syn. (Loewe volumes greater than 1 denoted “synergy”)	Add. (A value between −1 and 1 denoted “additivity”)	Syn. (Loewe volumes greater than 1 denoted “synergy”)	Syn. (Loewe volumes greater than 1 denoted “synergy”)	Syn. (Loewe volumes greater than 1 denoted “synergy”)	
